Measurements published in patent US20060252827A1, “Therapeutic use of acyglycerols and the nitrogen-and sulphur-containing analogues thereof” (priority 2003, published 2006).

Tests used:
LDL = LDL oxidation by copper, conjugated diene formation (OD 234 nm); assay type: biochemical; conditions: for decrease in the maximum amount of conjugated dienes formed: copper alone 496 nmol per mg of LDL, FIG. 2c; for rate of conjugated diene formation (LDL oxidation rate): copper alone 3, FIG. 2b; for increase in the lag phase: relative to copper alone; for increase in the lag phase / lag phase for conjugated diene formation: FIG. 2a; for lag phase for conjugated diene formation: copper alone 104 minutes
Protocol: LDL were prepared as described in Lebeau et al. (Lebeau, Furman et al. 2000). The solutions of the test compounds were prepared at 10^−2 M in ethanol and diluted in PBS so that the final concentration ranged from 0.1 to 100 μM with a total ethanol concentration of 1% (V/V).
Before oxidation, EDTA was removed from the LDL preparation by dialysis. The oxidation reaction was then carried out at 30° C. by adding 100 μl of 16.6 μM CuSO4 or 2 mM MPH to 800 μl of LDL (125 μg protein/ml) and 100 μl of a test compound solution. The formation of dienes, the species to be followed, was measured by the optical density at 234 nm in the samples treated with the compounds in the presence or absence of copper (or MPH). Optical density at 234 nm was measured every 10 minutes for 8 hours on a thermostated spectrophotometer (Kontron Uvikon 930). The analyses were carried out in triplicate. A compound was considered to have antioxidant activity when it shifted the lag phase latency relative to the control sample. […] FIG. 2 presents an example of the results obtained with the inventive compounds.

[1] = target: T1, hPPARα (Gal4/PPARα chimera) (Homo sapiens, UniProt Q07869); experiment: Gal4/PPARα transactivation system in HepG2 cells (luciferase); assay type: cell-based; conditions: HepG2, 24 h, PC liposomes, FIG. 3
T1 construct: expressed in transfected cells; host or cells: HepG2
T1 sequence (Q07869 239-466 limits assumed): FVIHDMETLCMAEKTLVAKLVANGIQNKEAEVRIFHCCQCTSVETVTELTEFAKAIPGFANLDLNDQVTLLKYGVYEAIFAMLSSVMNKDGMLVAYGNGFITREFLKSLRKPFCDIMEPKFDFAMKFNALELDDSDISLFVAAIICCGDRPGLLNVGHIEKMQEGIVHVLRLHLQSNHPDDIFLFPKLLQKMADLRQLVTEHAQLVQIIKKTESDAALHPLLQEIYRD
Protocol: PPAR activation was tested in vitro in RK13 fibroblast cell lines or in a […] line HepG2 by measuring the transcriptional activity of chimeras composed of the DNA binding domain of the yeast gal4 transcription factor and the ligand binding domain of the different PPARs. The example below is given for HepG2 cells.
HepG2 cells were from ECACC (Porton Down, UK) and were grown in DMEM medium supplemented with 10% (V/V) fetal calf serum, 100 U/ml penicillin (Gibco, Paisley, UK) and 2 mM L-glutamine (Gibco, Paisley, UK). The culture medium was changed every two days. Cells were kept at 37° C. in a humidified 95% air/5% CO2 atmosphere.
The plasmids pG5TkpGL3, pRL-CMV, pGal4-hPPARα, pGal4-hPPARγ and pGal4-f have been described by Raspe et al. (Raspe, Madsen et al. 1999). The pGal4-mPPARα and pGal4-hPPARβ constructs were obtained by cloning PCR-amplified DNA fragments corresponding to the DEF domains of the mouse PPARα and human PPARβ nuclear receptors, respectively, into the pGal4-f vector.
HepG2 cells were seeded in 24-well culture dishes at 5×10^4 cells/well and transfected for 2 hours with the reporter plasmid pG5TkpGL3 (50 ng/well), the expression vectors pGal4-f, pGal4-mPPARα, pGal4-hPPARα, pGal4-hPPARγ, pGal4-hPPAβ (100 ng/well) and the transfection efficiency control vector pRL-CMV (1 ng/well) according to the previously described protocol (Raspe, Madsen et al. 1999), then incubated for 36 hours with the test compounds. At the end of the experiment, the cells were lysed (Gibco, Paisley, UK) and luciferase activity was determined with a Dual-Luciferase™ Reporter Assay System kit (Promega, Madison, Wis., USA) according to the supplier's instructions. The protein content of the cell extracts was then measured with the Bio-Rad Protein Assay (Bio-Rad, Munich, Germany) as directed by the supplier.
FIG. 3: HepG2 cells transfected with Gal4/PPARα plasmids were incubated with different concentrations of inventive compounds (5, 15, 50 and 100 μM) for 24 h and with different concentrations of the vehicle (PC). The results are expressed as the induction factor (luminescent signal relative to untreated cells) after the different treatments. […] The induction factors for compound Ex 4p were 35 at 100 μM, 44 at 50 μM, 36 at 15 μM and 24 at 5 μM. In contrast, when the cells were incubated with the vehicle (PC liposome), no significant induction was observed.

[2] = system: ischemia induced by occlusion of the middle cerebral artery; experiment: Cerebral ischemia-reperfusion model, prophylactic treatment, brain infarct volume; assay type: in vivo, Wistar rats
Protocol: (§1) Wistar rats weighing 200 to 350 g were used for this experiment. Animals were treated by gavage with the inventive compounds (600 mg/kg/day) in suspension in the vehicle (0.5% carboxycellulose (CMC) and 0.1% Tween) or with the vehicle alone, for 14 days before ischemia induction by occlusion of the middle cerebral artery. Animals were anesthetized by intraperitoneal injection of 300 mg/kg chloral hydrate. A rectal probe was inserted and body temperature was maintained at 37° C.±0.5° C. Blood pressure was monitored throughout the experiment. Under a surgical microscope, the right carotid artery was exposed by a median incision in the neck. The pterygopalatine artery was ligated at its origin and an arteriotomy was fashioned in the external carotid artery so as to insert a nylon monofilament, which was gently advanced to the common carotid artery and then into the internal carotid artery so as to occlude the origin of the middle cerebral artery. The filament was withdrawn one hour later to allow reperfusion. Twenty-four hours after reperfusion, animals previously treated or not with the inventive compounds were euthanized by pentobarbital overdose. Brains were rapidly frozen and sliced. Sections were stained with cresyl violet. Unstained zones of the brain sections were considered to be damaged by the infarct. Areas (of the infarct and the two hemispheres) were measured and the volume of the infarct and the two hemispheres was calculated and the corrected infarct volume was determined by the following formula: (corrected infarct volume=infarct volume−(volume of right hemisphere−volume of left hemisphere)) to compensate for cerebral oedema.

[3] = system: ischemia induced by occlusion of the middle cerebral artery; experiment: Cerebral ischemia-reperfusion model, curative or acute phase treatment, brain infarct volume; assay type: in vivo, Wistar rats
Protocol: as §1, with “Animals such as those described previously” for “Wistar rats weighing 200 to 350 g”, “experiment.” for “experiment. Animals were treated by gavage with the inventive compounds (600 mg/kg/day) in suspension in the vehicle (0.5% carboxycellulose (CMC) and 0.1% Tween) or with the vehicle alone, for 14 days before ischemia induction by occlusion of the middle cerebral artery.”, “Animals first subjected to ischemia-reperfusion were treated with the inventive compounds by the oral route (such as previously described in CMC+Tween vehicle) one or more times after reperfusion (600 mg/kg/day or 300 mg/kg/day bid). 24, 48 or 72” for “Twenty-four”, “the” for “the inventive”, “measured,” for “measured and”

[4] = prophylactic treatment, FIG. 4b

| Compound | decrease in the maximum amount of conjugated dienes formed (LDL; compound at 10^-4 M) | rate of conjugated diene formation (LDL oxidation rate) (LDL; compound at 10^-4 M) | increase in the lag phase (LDL) | effect on the LDL oxidation rate (in words) (LDL; FIG. 2b) | induction factor (luminescent signal relative to untreated cells) ([1]; 5 μM) | induction factor (luminescent signal relative to untreated cells) ([1]; 15 μM) | induction factor (luminescent signal relative to untreated cells) ([1]; 50 μM) | induction factor (luminescent signal relative to untreated cells) ([1]; 100 μM) | also measured |
| --- | --- | --- | --- | --- | --- | --- | --- | --- | --- |
| 1,3-dilinoleyl-2-tetradecylthioacetylglycerol [Ex 4h] | 24% | 2.5 nmol/min/mg of LDL | 43% | – | – | – | – | – | – |
| CCCCCCCCCCCCCCSCC(=O)OCC(O)CO (stereo not drawn) [Ex 2a, 1-tetradecylthioacetylglycerol] | – | – | 67% | did not significantly alter | 17 fold | 31 fold | 41 fold | 62 fold | – |
| CCCCCCCCCCCCCCSCC(=O)OCC(COC(=O)CSCCCCCCCCCCCCCC)OC(=O)CSCCCCCCCCCCCCCC [Ex 4a, 1,2,3-tritetradecylthioacetylglycerol] | 60% | 1 nmol/min/mg of LDL | 160% | – | 9 fold | 18 fold | 30 fold | 41 fold | decrease in the oxidation rate (LDL; compound at 10^-4 M, FIG. 2b): 66%; lag phase for conjugated diene formation (LDL; compound at 10^-4 M): 270 min; decrease in lesion size relative to control animals ([2]; oral, 300 mg/kg/day bid, 14 days before ischemia, FIG. 4a): 22%; corrected total infarct volume (lesion size) ([2]; oral, 300 mg/kg/day bid, 14 days before ischemia, controls 186 mm^3, FIG. 4a): 145 mm^3; decrease in lesions, cortical infarct (uncorrected infarct volume) [2, 4]: 22%; effect on striatal infarct (uncorrected infarct volume), in words [2, 4]: no significant decrease in lesions; lesions smaller than control animals ([3]; 600 mg/kg/day for 24 hours after ischemia, FIG. 4c): 27%; infarct volume ([3]; 600 mg/kg/day for 24 hours after ischemia, controls 180 mm^3, FIG. 4c): 132 mm^3; lesions smaller than control animals ([3]; 600 mg/kg/day for 72 hours after ischemia, FIG. 4e): 40%; corrected infarct volume ([3]; 600 mg/kg/day for 72 hours after ischemia, controls 180 mm^3, FIG. 4e): 110 mm^3; decrease in lesions, cortical infarct (uncorrected infarct volume) ([3]; acute phase 24 h, FIG. 4d): 25%; effect on striatal infarct (uncorrected infarct volume), in words ([3]; acute phase 24 h, FIG. 4d): no significant decrease in lesions; decrease in lesions, cortical infarct (uncorrected infarct volume) ([3]; acute phase 72 h, FIG. 4f): 32%; decrease in lesions, striatal infarct (uncorrected infarct volume) ([3]; acute phase 72 h, FIG. 4f): 23% |
| CCCCCCCCCCCCCCCC(=O)OCC(COC(=O)CCCCCCCCCCCCCCC)OC(=O)CSCCCCCCCCCCCCCC [Ex 4g, 1,3-dipalmitoyl-2-tetradecylthioacetylglycerol] | 31% | 1.8 nmol/min/mg of LDL | 170% | – | – | – | – | – | lag phase for conjugated diene formation (LDL; compound at 10^-4 M): 282 min |
| CCCCCCCCCCCCCCCC(=O)OC(COC(=O)CSCCCCCCCCCCCCCC)COC(=O)CSCCCCCCCCCCCCCC [Ex 4o, 1,3-ditetradecylthioacetyl-2-palmitoylglycerol] | – | – | 37% | did not significantly alter | – | – | – | – | – |
| CCCCCCCCCCCCCCSCC(=O)OC(COC(C)=O)COC(C)=O [Ex 4p, 1,3-diacetyl-2-tetradecylthioacetylglycerol] | – | – | – | – | 24 fold | 36 fold | 44 fold | 35 fold | – |
| CCCCCCCCCCCCCCSCC(=O)OC(COC(=O)CCCCCCC)COC(=O)CCCCCCC [Ex 4q, 1,3-dioctanoyl-2-tetradecylthioacetylglycerol] | – | – | 54% | did not significantly alter | – | – | – | – | – |
